Results taken from patent publication EP0155934B1, “Pharmaceutical compositions for treating androgen-related disorders in humans” (Duke University, priority 1983, dated 1985).

Experiments:
5α-Reductase = test: Preincubation of enzyme with inhibitor and NADPH, tenfold dilution, then assay for 5a-reductase activity; assay type: biochemical; conditions: for manner of combination with / inactivation of the enzyme: in the presence of the co-factor NADPH; for Picomol Testosterone reduced/mg protein in 45 min + SEM: testosterone 5x10^-8, NADPH 5x10^-4
Description: (§1) The compounds of the present invention represent an important advance over progestrone and derivatives thereof since they are irreversible inhibitors of the enzyme 5a-reductase. Employing the assay of R. J. Moore and J. D. Wilson [Methods in Enzymology, Vol. XXXVI, Academic Press, N.Y., Ed. W. O'Malley and G. Hardman, p.

[1] = topical administration of a 0.5% solution in aqueous ethanol; cited from earlier work
[2] = test system: cell-culture preparations of human prostate; conditions: thereby inhibiting growth of the tissue; cited from earlier work
enzyme 5a-reductase = test: 5a-reductase inhibition, assay of R. J. Moore and J. D. Wilson; assay type: biochemical; conditions: compared with progesterone
Description: as §1

5a-reductase = test: Time course of inactivation of 5a-reductase after incubation with NADPH and inhibitor (saturation kinetics); assay type: biochemical; conditions: Fig. 1
Description: The time course of inactivation of 5a-reductase following incubation of the enzyme with NADPH and 17a-acetoxy-6-methyleneprogesterone is shown in Fig. 1.
When these rate constants are plotted (as the t 1/2's) against the reciprocal of the inhibitor concentrations, a straight line i obtained with a positive intercept on the y-axis, indicating a saturation phenomenon (Fig. 2). […] The rate constant for this step (kcat) is 4.8 x 10-^3 s-'.

| SMILES | manner of combination with / inactivation of the enzyme (5α-Reductase) | enzyme inactivation on preincubation (5α-Reductase; similar preincubation of the enzyme (with NADPH)) | males with acne with an important decrease in sebum secretion [1] | inhibition of the enzyme [2] | potency as inhibitors of the enzyme (enzyme 5a-reductase) | Picomol Testosterone reduced/mg protein in 45 min + SEM (5α-Reductase; A: preincubation 15 min with inhibitor 5x10^-7 M and NADPH 6x10^-5, assay: inhibitor 5x10^-8 M, n = 6) | Picomol Testosterone reduced/mg protein in 45 min + SEM (5α-Reductase; B: preincubation 15 min without inhibitor, NADPH 6x10^-5, assay: inhibitor 5x10^-8 M, n = 6) | Picomol Testosterone reduced/mg protein in 45 min + SEM (5α-Reductase; C: preincubation 15 min without inhibitor and without NADPH, assay: inhibitor 5x10^-8 M, n = 6) | Picomol Testosterone reduced/mg protein in 45 min + SEM (5α-Reductase; D: preincubation 15 min with inhibitor 5x10^-7 M, no NADPH, assay: inhibitor 5x1-^-8 M, n = 6) | Picomol Testosterone reduced/mg protein in 45 min + SEM (5α-Reductase; F: no preincubation, assay: inhibitor 5x10^-8 M, n = 4) | enzyme activity lost (5α-Reductase; preincubation with inhibitor and NADPH, diluting tenfold, assaying for 5a-reductase activity) [%] | time course of inactivation of the enzyme (5a-reductase) |
| --- | --- | --- | --- | --- | --- | --- | --- | --- | --- | --- | --- | --- |
| CC(=O)[C@H]1CC[C@H]2[C@@H]3CCC4=CC(=O)CC[C@]4(C)[C@H]3CC[C@]12C [Progesterone, reference compound] | competitive and reversible | does not result in enzyme inactivation | 45/53 | strongly inhibits |  |  |  |  |  |  |  |  |
| C=C1C[C@H]2[C@@H]3CC[C@H](C(C)=O)[C@@]3(C)CC[C@@H]2[C@@]2(C)CCC(=O)C=C12 [6-methyleneprogesterone] |  |  |  |  | equipotent with progesterone |  |  |  |  |  |  |  |
| C=C1C[C@@H]2[C@H](CC[C@@]3(C)[C@H]2CC[C@]3(OC(C)=O)C(C)=O)[C@@]2(C)CCC(=O)C=C12 [17a-acetoxy-6-methyleneprogesterone, 17-Acetoxy-6-methylene-4-pregnen-3,20-dione] | irreversible |  |  |  | equipotent with progesterone | 0.71±0.018n = 6 Picomol Testosterone reduced/mg protein in 45 min | 3.0 ±0.26n = 6 Picomol Testosterone reduced/mg protein in 45 min | 2.83±0.09n = 6 Picomol Testosterone reduced/mg protein in 45 min | 2.63±0.18n = 6 Picomol Testosterone reduced/mg protein in 45 min | 3.14±0.20n = 4 Picomol Testosterone reduced/mg protein in 45 min | 75 | pseudo first-order kinetics |
